# From paper PMC4774911, “Biochemical Screening of Five Protein Kinases from Plasmodium falciparum against 14,000 Cell-Active Compounds” (PLoS ONE, 2016)
# “And” between values parts separate entries of the source, which are not always exact repeats. Equal values may be shown once.
# Experiments:
# Test in all cases: biochemical
# Design in all cases: endogenous in cells; host or cells: K562 cell extract; species or system K562 (extract); replicate k of n = 2 (each experiment ID is one independent experiment; two experiment IDs per compound)
# Conditions in all cases: read-out: KDapp
# CDK7 = CDK7 (Homo sapiens, UniProt P50613)
# CDK7, sequence (P50613 whole entry): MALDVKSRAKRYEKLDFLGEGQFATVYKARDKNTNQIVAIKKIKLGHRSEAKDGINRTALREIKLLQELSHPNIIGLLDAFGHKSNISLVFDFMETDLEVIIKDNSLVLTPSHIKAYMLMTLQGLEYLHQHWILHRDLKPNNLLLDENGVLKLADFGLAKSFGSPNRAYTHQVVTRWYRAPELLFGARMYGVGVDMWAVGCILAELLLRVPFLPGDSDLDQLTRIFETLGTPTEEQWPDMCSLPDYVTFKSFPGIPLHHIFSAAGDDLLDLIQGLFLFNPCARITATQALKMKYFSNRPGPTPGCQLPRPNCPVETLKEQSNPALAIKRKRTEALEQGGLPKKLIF
# EIF2AK4 = EIF2AK4 (Homo sapiens, UniProt Q9P2K8)
# EIF2AK4, sequence (Q9P2K8 whole entry): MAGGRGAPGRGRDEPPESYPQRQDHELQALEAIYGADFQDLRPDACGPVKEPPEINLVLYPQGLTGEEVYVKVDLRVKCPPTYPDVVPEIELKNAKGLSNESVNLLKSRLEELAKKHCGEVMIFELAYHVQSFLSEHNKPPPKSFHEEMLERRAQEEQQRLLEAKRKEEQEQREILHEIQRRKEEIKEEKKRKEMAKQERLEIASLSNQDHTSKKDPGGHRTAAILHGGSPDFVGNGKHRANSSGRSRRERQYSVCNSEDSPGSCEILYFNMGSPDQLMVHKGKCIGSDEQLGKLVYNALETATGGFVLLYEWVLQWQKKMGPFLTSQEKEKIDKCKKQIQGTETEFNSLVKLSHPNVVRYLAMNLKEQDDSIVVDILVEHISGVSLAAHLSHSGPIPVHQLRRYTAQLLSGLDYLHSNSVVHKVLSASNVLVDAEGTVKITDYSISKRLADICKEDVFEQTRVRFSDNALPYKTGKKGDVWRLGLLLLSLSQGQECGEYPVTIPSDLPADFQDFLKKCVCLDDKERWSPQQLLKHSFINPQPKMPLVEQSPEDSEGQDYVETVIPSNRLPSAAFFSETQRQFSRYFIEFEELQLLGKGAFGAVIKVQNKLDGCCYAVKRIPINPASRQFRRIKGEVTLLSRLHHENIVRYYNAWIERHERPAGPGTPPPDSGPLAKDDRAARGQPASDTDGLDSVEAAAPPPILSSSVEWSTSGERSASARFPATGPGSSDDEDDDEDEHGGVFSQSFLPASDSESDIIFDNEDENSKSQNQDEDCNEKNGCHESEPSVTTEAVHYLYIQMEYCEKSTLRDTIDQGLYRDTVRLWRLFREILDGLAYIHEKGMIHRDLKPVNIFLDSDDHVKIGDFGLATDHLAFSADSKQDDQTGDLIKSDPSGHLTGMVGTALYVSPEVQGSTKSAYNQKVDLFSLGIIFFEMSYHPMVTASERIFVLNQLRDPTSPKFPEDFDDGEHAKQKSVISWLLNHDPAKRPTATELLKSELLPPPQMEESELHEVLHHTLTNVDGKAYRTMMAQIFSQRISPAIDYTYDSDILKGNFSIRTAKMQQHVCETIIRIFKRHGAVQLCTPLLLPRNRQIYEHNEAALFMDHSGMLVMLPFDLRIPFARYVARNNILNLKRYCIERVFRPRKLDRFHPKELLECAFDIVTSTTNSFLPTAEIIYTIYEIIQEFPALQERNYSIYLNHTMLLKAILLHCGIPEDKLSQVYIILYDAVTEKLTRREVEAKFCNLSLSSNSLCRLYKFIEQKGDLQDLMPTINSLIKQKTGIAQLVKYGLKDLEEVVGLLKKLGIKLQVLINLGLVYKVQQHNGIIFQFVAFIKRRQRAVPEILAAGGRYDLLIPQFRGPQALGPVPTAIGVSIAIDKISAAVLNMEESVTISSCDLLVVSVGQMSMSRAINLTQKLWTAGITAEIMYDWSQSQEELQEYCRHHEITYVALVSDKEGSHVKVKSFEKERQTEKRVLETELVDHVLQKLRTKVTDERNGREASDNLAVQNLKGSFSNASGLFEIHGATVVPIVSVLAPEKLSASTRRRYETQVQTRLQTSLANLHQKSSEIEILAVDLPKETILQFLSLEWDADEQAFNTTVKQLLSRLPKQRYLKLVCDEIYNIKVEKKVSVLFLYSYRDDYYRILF
# STK39 = STK39 (Homo sapiens, UniProt Q9UEW8)
# CSNK2A1 = CSNK2A1 (Homo sapiens, UniProt P68400)
# CSNK2A1, sequence (P68400 whole entry): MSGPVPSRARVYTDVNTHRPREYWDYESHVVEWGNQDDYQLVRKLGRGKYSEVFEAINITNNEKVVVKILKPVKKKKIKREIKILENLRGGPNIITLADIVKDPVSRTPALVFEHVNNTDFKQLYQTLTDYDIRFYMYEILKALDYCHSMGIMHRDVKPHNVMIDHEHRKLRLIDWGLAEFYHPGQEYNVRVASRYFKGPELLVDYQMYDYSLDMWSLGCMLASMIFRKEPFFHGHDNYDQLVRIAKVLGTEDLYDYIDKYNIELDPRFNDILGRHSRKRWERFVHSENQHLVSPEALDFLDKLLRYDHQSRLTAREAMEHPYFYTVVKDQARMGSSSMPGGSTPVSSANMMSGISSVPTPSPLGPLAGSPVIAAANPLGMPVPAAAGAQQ
# MAP2K1 = MAP2K1 (Homo sapiens, UniProt Q02750)
# MAP2K1, sequence (Q02750 whole entry): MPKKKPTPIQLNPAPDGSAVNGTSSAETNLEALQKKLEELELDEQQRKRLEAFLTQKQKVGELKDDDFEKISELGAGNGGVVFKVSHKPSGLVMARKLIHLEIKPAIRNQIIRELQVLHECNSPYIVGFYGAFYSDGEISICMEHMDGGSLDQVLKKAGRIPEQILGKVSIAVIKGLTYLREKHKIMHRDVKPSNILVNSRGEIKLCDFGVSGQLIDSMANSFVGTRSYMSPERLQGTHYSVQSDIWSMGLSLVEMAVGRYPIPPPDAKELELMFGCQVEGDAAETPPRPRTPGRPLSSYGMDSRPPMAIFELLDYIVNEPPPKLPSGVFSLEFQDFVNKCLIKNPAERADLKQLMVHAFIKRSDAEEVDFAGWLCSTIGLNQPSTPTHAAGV
# MAP3K2 = biological target: T1, MAP3K2 (Homo sapiens, UniProt Q9Y2U5)
# T1 sequence (Q9Y2U5 1-619): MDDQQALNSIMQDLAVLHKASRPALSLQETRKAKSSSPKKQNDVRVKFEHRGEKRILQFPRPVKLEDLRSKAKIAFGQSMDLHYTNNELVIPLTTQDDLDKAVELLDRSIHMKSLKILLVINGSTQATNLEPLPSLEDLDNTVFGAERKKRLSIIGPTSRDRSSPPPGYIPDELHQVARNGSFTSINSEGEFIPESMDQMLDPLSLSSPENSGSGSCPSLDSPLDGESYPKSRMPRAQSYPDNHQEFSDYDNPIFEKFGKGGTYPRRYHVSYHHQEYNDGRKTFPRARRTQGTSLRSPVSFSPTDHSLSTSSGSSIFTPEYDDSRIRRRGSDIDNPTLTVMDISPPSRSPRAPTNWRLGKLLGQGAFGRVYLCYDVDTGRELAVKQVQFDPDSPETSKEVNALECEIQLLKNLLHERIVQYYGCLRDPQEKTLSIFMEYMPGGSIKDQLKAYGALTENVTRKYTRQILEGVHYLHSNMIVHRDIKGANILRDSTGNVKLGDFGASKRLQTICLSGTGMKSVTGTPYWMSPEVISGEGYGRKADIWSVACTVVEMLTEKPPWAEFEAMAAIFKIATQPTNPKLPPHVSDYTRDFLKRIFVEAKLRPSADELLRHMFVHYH
# EPHB4 = biological target: T2, EPHB4 (Homo sapiens, UniProt P54760)
# T2 sequence (P54760 1-987): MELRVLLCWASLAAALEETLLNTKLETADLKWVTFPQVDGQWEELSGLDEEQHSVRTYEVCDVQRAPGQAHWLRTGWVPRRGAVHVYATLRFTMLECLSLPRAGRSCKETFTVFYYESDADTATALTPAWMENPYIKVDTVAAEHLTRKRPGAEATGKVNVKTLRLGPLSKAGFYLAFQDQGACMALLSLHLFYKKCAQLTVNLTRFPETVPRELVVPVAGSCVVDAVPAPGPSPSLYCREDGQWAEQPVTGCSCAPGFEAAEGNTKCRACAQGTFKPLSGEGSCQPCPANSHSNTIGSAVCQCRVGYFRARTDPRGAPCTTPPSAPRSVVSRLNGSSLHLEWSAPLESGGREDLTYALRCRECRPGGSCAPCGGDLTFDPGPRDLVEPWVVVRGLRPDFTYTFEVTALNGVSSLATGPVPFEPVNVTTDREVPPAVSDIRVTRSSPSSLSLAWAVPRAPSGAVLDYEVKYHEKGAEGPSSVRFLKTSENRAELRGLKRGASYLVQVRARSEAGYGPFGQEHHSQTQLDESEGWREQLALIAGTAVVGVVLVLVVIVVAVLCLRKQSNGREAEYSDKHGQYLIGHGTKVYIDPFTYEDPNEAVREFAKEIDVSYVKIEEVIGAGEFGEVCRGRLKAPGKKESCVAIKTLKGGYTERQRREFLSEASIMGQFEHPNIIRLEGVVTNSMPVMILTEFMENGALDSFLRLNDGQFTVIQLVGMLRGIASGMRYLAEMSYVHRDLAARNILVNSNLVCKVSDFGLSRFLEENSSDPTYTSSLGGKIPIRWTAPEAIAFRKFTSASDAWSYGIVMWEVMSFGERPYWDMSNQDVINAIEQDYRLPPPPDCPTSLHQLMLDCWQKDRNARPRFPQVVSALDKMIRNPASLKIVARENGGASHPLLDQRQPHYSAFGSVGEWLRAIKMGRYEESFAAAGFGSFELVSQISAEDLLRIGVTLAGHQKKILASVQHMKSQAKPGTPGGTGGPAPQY
# YES1 = YES1 (Homo sapiens, UniProt P07947)
# YES1, sequence (P07947 whole entry): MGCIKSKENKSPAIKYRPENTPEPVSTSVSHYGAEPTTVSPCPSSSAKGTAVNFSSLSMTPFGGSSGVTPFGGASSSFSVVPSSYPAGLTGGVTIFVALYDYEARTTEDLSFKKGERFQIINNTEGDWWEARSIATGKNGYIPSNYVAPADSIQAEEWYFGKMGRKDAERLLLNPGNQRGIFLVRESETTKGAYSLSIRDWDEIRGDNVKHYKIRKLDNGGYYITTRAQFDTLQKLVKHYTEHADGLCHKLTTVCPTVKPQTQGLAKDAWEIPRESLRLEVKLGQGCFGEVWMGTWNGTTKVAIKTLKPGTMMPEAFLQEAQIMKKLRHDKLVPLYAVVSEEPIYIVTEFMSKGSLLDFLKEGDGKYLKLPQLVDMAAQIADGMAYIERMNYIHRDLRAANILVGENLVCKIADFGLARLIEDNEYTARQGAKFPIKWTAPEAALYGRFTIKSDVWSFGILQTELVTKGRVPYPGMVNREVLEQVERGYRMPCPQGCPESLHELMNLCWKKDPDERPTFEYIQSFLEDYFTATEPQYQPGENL
# CSNK1D = CSNK1D (Homo sapiens, UniProt P48730)
# CSNK1D, sequence (P48730 whole entry): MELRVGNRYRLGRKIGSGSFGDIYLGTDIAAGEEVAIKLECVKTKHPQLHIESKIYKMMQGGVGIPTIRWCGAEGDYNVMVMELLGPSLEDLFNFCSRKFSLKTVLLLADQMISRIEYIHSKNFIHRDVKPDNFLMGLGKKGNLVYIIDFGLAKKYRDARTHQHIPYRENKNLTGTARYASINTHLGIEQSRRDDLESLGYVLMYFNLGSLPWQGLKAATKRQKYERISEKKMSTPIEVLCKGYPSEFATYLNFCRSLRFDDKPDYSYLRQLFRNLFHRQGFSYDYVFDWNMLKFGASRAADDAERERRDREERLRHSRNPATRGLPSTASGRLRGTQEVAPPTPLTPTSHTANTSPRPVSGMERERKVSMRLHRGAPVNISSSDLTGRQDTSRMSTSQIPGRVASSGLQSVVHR
smiles,measurement,setting,value
CN(C)CC(O)COc1ccc(Nc2ncc([N+](=O)[O-])c(Nc3ccccc3O)n2)cc1.O=C(O)C(F)(F)F (stereo not drawn) [TCMDC-141399],Kd,CDK7,1.43 µM and 4.62 µM
same,Kd,EIF2AK4,0.182 µM and 0.245 µM
same,Kd,STK39,4.76 µM
same,Kd,CSNK2A1,0.0635 µM
Cl.NCC1(c2nc(-c3ccc(Cl)c(O)c3)c(-c3ccncc3)[nH]2)CCCCC1 [TCMDC-141154],Kd,MAP2K1,8.76 µM
same,Kd,MAP3K2,0.779 µM
same,Kd,EPHB4,2.6 µM
same,Kd,YES1,1.49 µM and 2.6 µM
same,Kd,CSNK1D,0.044 µM and 0.0504 µM
CN1CCN(c2ccc(Nc3ncc(C#N)c(Nc4ccccc4C(N)=O)n3)cc2)CC1.Cl [TCMDC-134116],Kd,CDK7,0.422 µM and 0.494 µM
same,Kd,EIF2AK4,0.168 µM and 0.147 µM
same,Kd,MAP2K1,1.63 µM and 1.45 µM
same,Kd,STK39,0.058 µM
same,Kd,MAP3K2,0.318 µM
same,Kd,EPHB4,2.11 µM
same,Kd,CSNK2A1,0.0235 µM
same,Kd,YES1,0.0406 µM and 0.0507 µM
same,Kd,CSNK1D,1.15 µM
